Where two headings read alike, the source gives them in different places. Non-standard residues stand in square brackets, D forms with d. Primed or numbered codes have the meaning given here. *: point of attachment. DO3A10CM(3) = metal chelator group attached at the N-terminus (X in table rows); Bpa = N[C@@H](Cc1ccc(C(=O)c2ccccc2)cc1)C(=O)O; d1Nal = N[C@H](Cc1cccc2ccccc12)C(=O)O; d2Nal = N[C@H](Cc1ccc2ccccc2c1)C(=O)O; Hyp = O=C(O)[C@@H]1C[C@@H](O)CN1; d3Pal = N[C@H](Cc1cccnc1)C(=O)O; His(1-Me) = 1-methylhistidine; DO3A10CM = not defined here; Nicotinoyl = O=C(c1cccnc1)*; Bpa4 = non-natural residue; Amfe4 = not defined here; Bzgly = not defined here; Dcfe4 = not defined here; dCfe4 = not defined here; Afe4 = not defined here; azaGly = NNC(=O)O; Sar = CNCC(=O)O; iPr = CC(C)*
Tests used:
[1] = tested on: EFO-27 human ovarian cancer cells (LHRH binding sites); experiment: Direct binding/uptake of 177Lu-labeled LHRH-II analogs to EFO-27 cells; settings: 177Lu-labeled analog, single concentration
Protocol: All reagents and chemicals were obtained from Sigma unless otherwise specified. LHRH analogs and ^177Lu-LHRH-II analogs were prepared by in-house chemists, as described elsewhere in the application. ^177Lu-LHRH-II analogs were not HPLC purified, as they had been prepared using formulation conditions that yielded high RCP without the need for purification. […] The HPLC-purified material was taken in a stabilizing buffer containing 5% lactose, 0.1% L-cysteine hydrochloride and 800 KIU/mL aprotinin and received as a lyophilized product and stored at −70° C. This was reconstituted in distilled water, aliquoted and stored at −70° C. The radioactivity was determined using Microplate Scintillation counter (Wallac Microbeta Trilux).
For the binding assay, EFO-27 cells were seeded onto 96-well clear flat-bottom tissue-culture-treated plates at 15,000/well density in the growth medium and used for assay on day 2 post-seeding. Cells were routinely checked for confluence and contamination and cell count was done occasionally to ensure consistency in cell numbers.
Direct Binding: Direct binding studies were carried out by incubating appropriate ^177Lu-labeled compounds with EFO-27 cells at 4° C. for 1 h followed by washing off the unbound radioactivity. Non-specific binding was determined by incubating the ^177Lu-LHRH-II analogs in the presence of a large excess (30 uM) of cold (unlabeled) LHRH-II analogs. A 96-well plate format was used.

[2] = tested on: LHRH binding sites on human ovarian cancer cells (EFO-27);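 also: Cell-associated radioactivity on confluent EFO-27 monolayers in 96-well plates, measured by microplate scintillation counting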
[3] = molecular target: LHRH receptor (LHRH binding sites) on EFO-27 human ovarian cancer cells (human); experiment: competition with [125I-Tyr8]BRU-2477 for binding to EFO-27 cells
[4] = molecular target: LHRH binding sites on EFO-27 human ovarian cancer cells (human); experiment: competition with [125I-Tyr8]BRU-2477 on EFO-27 cells
[5] = Table 8: N-substituted amino acid at position 1 and Gly as linker, in vitro binding on EFO-27 cells
[6] = Table 13: linker between AA1 and DO3A10CM, EFO-27 cells
[7] = read-out: 125I-LHRH II Competition EC50, Table 24, unlabeled analogs, EFO-27 cells

Row | Molecule | EC50 [2, 7] | EC50 [3] | 177Lu-LHRH II Direct binding % Bound [1] | also measured
1 | N=C(N)NCCC[C@@H](NC(=O)[C@H](Cc1c[nH]cn1)NC(=O)[C@H](CO)NC(=O)[C@H](Cc1c[nH]c2ccccc12)NC(=O)[C@H](Cc1c[nH]cn1)NC(=O)CN(Cc1ccccc1)C(=O)CNC(=O)CN1CCN(CC(=O)O)CCN(CC(=O)O)CCN(CC(=O)O)CC1)C(=O)N[C@@H](Cc1c[nH]c2ccccc12)C(=O)N[C@@H](Cc1ccc(C(=O)c2ccccc2)cc1)C(=O)N1CCC[C@H]1C(=O)NNC(N)=O [compound 2792] | 1800 nM | – | 1.28% | EC50 [2, 5]: 2270 nM; EC50 [2, 6]: 650 nM
2 | 2823 (XHWSHXWXPX; not fully specified; N-methyl) [compound 2823] | 1610 nM | – | 1.00% | –
3 | N=C(N)NCCC[C@H](NC(=O)[C@@H](Cc1ccc2ccccc2c1)NC(=O)CN1CCN(CC(=O)O)CCN(CC(=O)O)CCN(CC(=O)O)CC1)C(=O)N[C@@H](Cc1c[nH]c2ccccc12)C(=O)N[C@@H](CO)C(=O)N[C@@H](Cc1c[nH]cn1)C(=O)N[C@H](CCCNC(=N)N)C(=O)N[C@@H](Cc1c[nH]c2ccccc12)C(=O)N[C@@H](Cc1ccc(C(=O)c2ccccc2)cc1)C(=O)N1CCC[C@H]1C(=O)NCCOCCN [compound 2968] | – | – | 23.5% | EC50 [2]: 240 nM
4 | N=C(N)NCCC[C@@H](NC(=O)[C@H](Cc1c[nH]cn1)NC(=O)[C@H](CO)NC(=O)[C@H](Cc1c[nH]c2ccccc12)NC(=O)[C@H](Cc1c[nH]cn1)NC(=O)CN(CCc1ccc(O)cc1)C(=O)CNC(=O)CN1CCN(CC(=O)O)CCN(CC(=O)O)CCN(CC(=O)O)CC1)C(=O)N[C@@H](Cc1c[nH]c2ccccc12)C(=O)N[C@@H](Cc1ccc(C(=O)c2ccccc2)cc1)C(=O)N1CCC[C@H]1C(=O)NNC(N)=O [compound 2797] | – | – | 4.64% | EC50 [2, 5]: 450 nM
5 | 2642 (DO3A10CM-G[d2Nal][Dcfe4][d3Pal]S[Metyr][dK](Nicotinoyl)LK(iPr)[Hyp][dA]-NH2; reading uncertain) [compound 2642] | > 10000 nM | – | 0.105% | –
6 | 2742 (XHWSHXWXPX; N-methyl) [compound 2742] | > 10000 nM | – | 0.125% | –
7 | 2812 (DO3A10CM-[d2Nal][Afe4]WSH[dR]W[Bpa]P[azaGly]-NH2; not fully specified; printed as X-Dnal2-Afe4-Trp-Ser-His-Darg-Trp-Bpa4-Pro-azaG-NH2; reading uncertain) [compound 2812] | 3690 nM | – | 5.80% | –
8 | 2644 (DO3A10CM-G[d2Nal][Dcfe4][d3Pal]SH[dR]WYP[dA]-NH2; reading uncertain) [compound 2644] | 2910 nM | – | 2.13% | –
9 | N=C(N)NCCC[C@H](NC(=O)[C@@H](Cc1ccc2ccccc2c1)NC(=O)CN1CCN(CC(=O)O)CCN(CC(=O)O)CCN(CC(=O)O)CC1)C(=O)N[C@@H](Cc1c[nH]c2ccccc12)C(=O)N[C@@H](CO)C(=O)N[C@@H](Cc1c[nH]cn1)C(=O)N[C@H](CCCNC(=N)N)C(=O)N[C@@H](Cc1c[nH]c2ccccc12)C(=O)N[C@@H](Cc1ccc(C(=O)c2ccccc2)cc1)C(=O)N1CCC[C@H]1C(=O)NNC(N)=O [compound 2813] | 300 nM | – | 18.80% | –
10 | 2766 (DO3A10CM-G[d1Nal]HWSH[dR]W[Bpa]P[azaGly]-NH2; reading uncertain) [compound 2766] | 620 nM | – | 10.29% | –
11 | CN(CC(=O)N[C@@H](Cc1c[nH]cn1)C(=O)N[C@@H](Cc1c[nH]c2ccccc12)C(=O)N[C@@H](CO)C(=O)N[C@@H](Cc1c[nH]cn1)C(=O)N[C@H](CCCNC(=N)N)C(=O)N[C@@H](Cc1c[nH]c2ccccc12)C(=O)N[C@@H](Cc1ccc(C(=O)c2ccccc2)cc1)C(=O)N1CCC[C@H]1C(=O)NNC(N)=O)C(=O)CN1CCN(CC(=O)O)CCN(CC(=O)O)CCN(CC(=O)O)CC1 [compound 2443] | 950 nM | – | 1.8% | EC50 ([2]; Table 11: modification of amino acid at position 5, EFO-27 cells): 950 nM; EC50 [2, 6]: 950 nM
12 | 2613 (DO3A10CM-G[Sar][Dcfe4][d1Nal]S[Metyr][dK](Nicotinoyl)LK(iPr)P[dA]-NH2; reading uncertain) [compound 2613] | > 10000 nM | – | 0.17% | –
13 | XHWSHXWXPX (DO3A10CM on N-terminus; AA1 Sar; AA6 Darg; AA8 Thy; AA10 azaGly-NH2) [BRU-2823] | – | 1610 nM | – | EC50 [4]: 1610 nM
14 | XFWSHXWXPX (as printed: DO3A10CM-Sar-Phe-Trp-Ser-His-Darg-Trp-Bpa4-Pro-azaGly-NH2) [BRU-2738] | – | 1220 nM | – | –
15 | XHWSHXWXPX (DO3A10CM on N-terminus; AA1 Sar; AA6 Darg; AA8 Dip; AA10 azaGly-NH2) [BRU-2721] | – | 4550 nM | – | EC50 [4]: 4550 nM

Further lines, with some results ahead:

Row | EC50 [2, 7] | EC50 [3] | Molecule | 177Lu-LHRH II Direct binding % Bound [1] | also measured
16 | 2990 nM | – | 2741 (DO3A10CM-[Sar][His(1-Me)]WSH[dR]W[Bpa]P[azaGly]-NH2; reading uncertain) [compound 2741] | 1.35% | –
17 | 4620 nM | – | 2722 (XHWSHXWXPX; not fully specified; N-methyl) [compound 2722] | 0.36% | –
18 | > 10000 nM | – | 2440 (DO3A10CM-[Sar]HWSH[dR]WYP[azaGly]-NH2; reading uncertain) [compound 2440] | 0.21% | –
19 | 4550 nM | – | 2721 (XHWSHXWXPX; not fully specified; N-methyl) [compound 2721] | 0.79% | –
20 | 2260 nM | – | 2725 (XHWSHXWXPX; not fully specified; N-methyl) [compound 2725] | 0.41% | –
21 | 3200 nM | – | 2896 (XHWSHXWXPX; not fully specified; N-methyl) [compound 2896] | 0.70% | –
22 | 280 nM | – | 2756 (DO3A10CM-[Sar][Amfe4]WSH[dR]W[Bpa4]P[azaGly]-NH2; reading uncertain) [compound 2756] | 5.17% | –
23 | 2010 nM | – | 2624 (XHWSHXWXPX; N-methyl) [compound 2624] | 4.03% | –
24 | – | 3690 nM | DO3A10CM-[d2Nal][Afe4]WSH[dR]W[Bpa]P[azaGly]-NH2 (reading uncertain; also: printed as DO3A10CM-Dnal2-Afe4-Trp-Ser-His-Darg-Trp-Bpa4-Pro-azaGly-NH2) [BRU-2812] | – | –
25 | – | 1800 nM | DO3A10CM-G[Bzgly]HWSH[dR]W[Bpa]P[azaGly]-NH2 (reading uncertain) [BRU-2792] | – | EC50 [4]: 2270 nM
26 | – | 2010 nM | XHWSHXWXPX (DO3A10CM on N-terminus; AA1 Sar; AA6 Darg; AA8 Nal2; AA10 azaGly-NH2) [BRU-2624] | – | EC50 [4]: 2010 nM
27 | – | 4620 nM | XHWSHXWXPX (DO3A10CM on N-terminus; AA1 Sar; AA6 Darg; AA8 F5fe; AA10 azaGly-NH2) [BRU-2722] | – | EC50 [4]: 4620 nM
28 | – | 2260 nM | XHWSHXWXPX (DO3A10CM on N-terminus; AA1 Sar; AA6 Darg; AA8 Cfe4; AA10 azaGly-NH2) [BRU-2725] | – | EC50 [4]: 2260 nM
29 | – | 2910 nM | {DO3A10CM(3)}-G[d2Nal][dCfe4][d3Pal]SH[dR]WYP[dA]-NH2 (reading uncertain; also: printed as DO3A10CM-Gly-Dnal2-Dcfe4-Dpal3-Ser-His-Darg-Trp-Tyr-Pro-Dala-NH2) [BRU-2644] | – | –

Source: patent US20120045393A1 (priority 2009, published 2012)
